Experimental data: patent US11802120B2, “Fused cyclic urea derivatives as CRHR2 antagonist” (RaQualia Pharma Inc., priority 2018, dated 2023)
pIC50: −log10 of the molar value.

Biological target: T1, human CRHR2-alpha (Homo sapiens, UniProt Q13324)
T1 sequence (Q13324 1-411): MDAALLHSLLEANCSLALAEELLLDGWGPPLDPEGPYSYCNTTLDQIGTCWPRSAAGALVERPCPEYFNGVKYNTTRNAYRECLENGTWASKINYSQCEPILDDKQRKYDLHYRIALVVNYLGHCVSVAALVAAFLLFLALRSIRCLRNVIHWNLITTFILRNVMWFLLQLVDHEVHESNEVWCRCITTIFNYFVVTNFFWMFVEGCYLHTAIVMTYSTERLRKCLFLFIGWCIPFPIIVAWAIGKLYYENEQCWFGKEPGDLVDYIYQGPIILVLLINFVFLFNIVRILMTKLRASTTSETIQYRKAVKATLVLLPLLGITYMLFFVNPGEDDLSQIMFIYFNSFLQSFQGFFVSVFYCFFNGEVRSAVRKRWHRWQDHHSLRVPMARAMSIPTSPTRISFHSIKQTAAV
Test: cAMP functional assay for human CRHR2 (LANCE Ultra cAMP, TR-FRET)
Type: cell-based
Conditions: CHO-K1 cells expressing human CRHR2-alpha, agonist human urocortin2 at EC80, cAMP; read-out: IC50 against CRHR2
How it was run: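 CHO-K1 stable lines; 4,000 cells/well; compound 30 min, 25° C; EC80 agonist (human urocortin2 → CRHR2, CRF → CRHR1) 30 min, 25° C; buffer HBSS/0.1% BSA/0.5 mM IBMX/5 mM Hepes pH 7.4; Eu-cAMP tracer + ULight antibody 60 min; TR-FRET read; IC50 from % inhibition curves.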

pIC50, > 6.52:
Cc1ncc(Cl)cc1C(=O)N[C@H]1CC[C@H](Cn2c(=O)n(-c3ccc(-c4c[nH]nn4)cc3)c3ccccc32)CC1 [Example 633, N-((1r,4r)-4-((3-(4-(1H-1,2,3-triazol-4-yl)phenyl)-2-oxo-2,3-dihydro-1H-benzo[d]imidazol-1-yl)methyl)cyclohexyl)-5-chloro-2-methylnicotinamide]
Cc1ncc(Cl)cc1C(=O)N[C@H]1CC[C@H](Cn2c(=O)n(C3COc4ccccc4C3)c3ccccc32)CC1 (stereo partly drawn) [Example 167, 5-chloro-N-((1r,4r)-4-((3-(chroman-3-yl)-2-oxo-2,3-dihydro-1H-benzo[d]imidazol-1-yl)methyl)cyclo-hexyl)-2-methylnicotinamide]
Cc1ncc(Cl)cc1C(=O)N[C@H]1CC[C@H](Cn2c(=O)n(-c3ccc(C(=O)NCc4ccon4)nc3)c3ccccc32)CC1 [Example 176, 5-(3-(((1r,4r)-4-(5-chloro-2-methylnicotinamido)cyclo-hexyl)methyl)-2-oxo-2,3-dihydro-1H-benzo[d]imidazol-1-yl)-N-(isoxazol-3-ylmethyl) picolinamide]
Cc1ncc(Cl)cc1C(=O)N[C@H]1CC[C@H](Cn2c(=O)n(-c3ccc4[nH]nc(C)c4c3)c3ncccc32)CC1 [Example 212, 5-chloro-2-methyl-N-((1r,4r)-4-((3-(3-methyl-1H-indazol-5-yl)-2-oxo-2,3-dihydro-1H-imidazo[4,5-b]pyridin-1-yl)methyl)cyclohexyl)nicotinamide]
O=C(N[C@H]1CC[C@H](Cn2c(=O)n(-c3cnc4c(ccn4CCO)c3)c3ccccc32)CC1)c1cc(Cl)cnc1C(F)F [Example 666, 5-chloro-2-(difluoromethyl)-N-((1r,4r)-4-((3-(1-(2-hydroxyethyl)-1H-pyrrolo[2,3-b]pyridin-5-yl)-2-oxo-2,3-dihydro-1H-benzo[d]imidazol-1-yl)methyl)cyclohexyl)nicotinamide]
O=C(N[C@H]1CC[C@H](Cn2c(=O)n(-c3cncc(N4CCOCC4)c3)c3ccccc32)CC1)c1cc(Cl)cnc1C(F)F [Example 476, 5-chloro-2-(difluoromethyl)-N-((1r,4r)-4-((3-(5-morpholino-pyridin-3-yl)-2-oxo-2,3-dihydro-1H-benzo[d]imidazol-1-yl)methyl)cyclohexyl) nicotinamide]
CCn1nc2ncc(-n3c(=O)n(C[C@H]4CC[C@H](NC(=O)c5cc(Cl)cnc5C)CC4)c4ccccc43)cc2c1C [Example 295, 5-chloro-N-((1r,4r)-4-((3-(2-ethyl-3-methyl-2H-pyrazolo[3,4-b]pyridin-5-yl)-2-oxo-2,3-dihydro-1H-benzo[d]imidazol-1-yl)methyl)cyclohexyl)-2-methylnicotinamide]
Cc1ncc(Cl)cc1C(=O)N[C@H]1CC[C@H](Cn2c(=O)n(-c3ccc(C(=O)Nc4ccncc4)nc3)c3ccccc32)CC1 [Example 181, 5-(3-(((1r,4r)-4-(5-chloro-2-methylnicotinamido)cyclo-hexyl)methyl)-2-oxo-2,3-dihydro-1H-benzo[d]imidazol-1-yl)-N-(pyridin-4-yl) picolinamide]
O=C(N[C@H]1CC[C@H](Cn2c(=O)n(-c3ccc(NCCO)nc3)c3ccccc32)CC1)c1cc(Cl)cnc1C(F)F [Example 571, 5-chloro-2-(difluoromethyl)-N-((1r,4r)-4-((3-(6-((2-hydroxyethyl)amino)pyridin-3-yl)-2-oxo-2,3-dihydro-1H-benzo[d]imidazol-1-yl)methyl)cyclohexyl)nicotinamide]
Cc1ncc(Cl)cc1C(=O)N[C@H]1CC[C@H](Cn2c(=O)n(-c3cccc(N4CCNC4=O)n3)c3ccccc32)CC1 [Example 772, 5-chloro-2-methyl-N-((1r,4r)-4-((2-oxo-3-(6-(2-oxo-imidazolidin-1-yl)pyridin-2-yl)-2,3-dihydro-1H-benzo [d]imidazol-1-yl)methyl)cyclohexyl)nicotinamide]
CCn1ncc2cc(-n3c(=O)n(C[C@H]4CC[C@H](NC(=O)c5cc(Cl)cnc5C)CC4)c4ccccc43)cnc21 [Example 250, 5-chloro-N-((1r,4r)-4-((3-(1-ethyl-1H-pyrazolo[3,4-b]pyridin-5-yl)-2-oxo-2,3-dihydro-1H-benzo[d]imidazol-1-yl)methyl)cyclo-hexyl)-2-methylnicotinamide]
O=C(N[C@H]1CC[C@H](Cn2c(=O)n(-c3ccc(CO)cc3)c3ccccc32)CC1)c1cc(Cl)cnc1C(F)F [Example 384, 5-chloro-2-(difluoromethyl)-N-((1r,4r)-4-((3-(4-(hydroxy-methyl)phenyl)-2-oxo-2,3-dihydro-1H-benzo[d]imidazol-1-yl)methyl)cyclohexyl) nicotinamide]
COc1ccc(F)c(-n2c(=O)n(C[C@H]3CC[C@H](NC(=O)c4cc(Cl)cnc4C(F)F)CC3)c3ncccc32)c1 [Example 720, 5-chloro-2-(difluoromethyl)-N-((1r,4r)-4-((1-(2-fluoro-5-methoxyphenyl)-2-oxo-1H-imidazo[4,5-b]pyridin-3(2H)-yl)methyl)cyclohexyl) nicotinamide]
CNC(=O)c1ccc(-n2c(=O)n(C[C@H]3CC[C@H](NC(=O)c4cc(Cl)cnc4C4CCC4)CC3)c3ccccc32)cn1 [Example 322, 5-(3-(((1r,4r)-4-(5-chloro-2-cyclobutylnicotinamido)cyclohexyl)methyl)-2-oxo-2,3-dihydro-1H-benzo[d]imidazol-1-yl)-N-methyl-picolinamide]
Cc1ncc(Cl)cc1C(=O)N[C@H]1CC[C@H](Cn2c(=O)n(-c3ccc(-c4ccon4)cc3)c3ccccc32)CC1 [Example 445, 5-chloro-N-((1r,4r)-4-((3-(4-(isoxazol-3-yl)phenyl)-2-oxo-2,3-dihydro-1H-benzo[d]imidazol-1-yl)methyl)cyclo-hexyl)-2-methylnicotinamide]
CNC(=O)c1ccc(-n2c(=O)n(C[C@H]3CC[C@H](NC(=O)c4cc(Cl)cnc4C)CC3)c3cc(OC)ccc32)cn1 [Example 194, 5-(3-(((1r,4r)-4-(5-chloro-2-methylnicotinamido)cyclohexyl)methyl)-5-methoxy-2-oxo-2,3-dihydro-1H-benzo[d]imidazol-1-yl)-N-methylpicolinamide]
O=C(N[C@H]1CC[C@H](Cn2c(=O)n(-c3cccc(N4CCOCC4)c3)c3ccccc32)CC1)c1cc(Cl)cnc1C(F)F [Example 566, 5-chloro-2-(difluoromethyl)-N-((1r,4r)-4-((3-(3-morpholinophenyl)-2-oxo-2,3-dihydro-1H-benzo[d]imidazol-1-yl)methyl)cyclo-hexyl)nicotinamide]
O=C(N[C@H]1CC[C@H](Cn2c(=O)n(-c3ccnc(N4CCOCC4)c3)c3ccccc32)CC1)c1cc(Cl)cnc1C(F)F [Example 686, 5-chloro-2-(difluoromethyl)-N-((1r,4r)-4-((3-(2-morpho-linopyridin-4-yl)-2-oxo-2,3-dihydro-1H-benzo[d]imidazol-1-yl)methyl)cyclohexyl) nicotinamide]
